From patent publication US4550118A, “Heterocyclic compounds” (Ikeda Mohando Co., Ltd., priority 1982, dated 1985)

Experiments:
gastric mucus secretion = assay: Effect on gastric mucus secretion in rats (alcian blue binding); assay type: in vivo, Wistar male rats; conditions: 10 mg/kg × 2/day orally for 7 days, * significant at 5%, ** at 1%; for Alcian blue binding: 7 rats; for % Change (Alcian blue binding): vs control (0.5% CMC)
Experimental: The test compounds were administered orally to Wistar male rats weighing from 160 to 180 g so as to investigate the effect on gastric mucus secretion. The amount of mucus was determined using alcian blue color specifically bonding with acid mucosaccharides, and was expressed by the amount of color bonding with a unit weight (OD units/g tissue). The test compounds were administered at a dosage of 10 mg/kg twice a day for 7 days, and the rats were sacrificed one hour after the final administration in the morning on the 8th day by cervical dislocation. After laparatomy, the stomach was removed. After removal of the forestomach, an incision was made along the greater curvatura. The stomach was lightly washed with a 0.25M sucrose solution cooled with ice. The weight was determined after absorption of water with a filter paper.
Then, the stomach was exposed for 1.5 hrs in 10 ml of 0.25M sucrose solution containing 0.1% alcian blue 8 GX for staining. Then, the stained stomach was washed with 10 ml of a 0.25M sucrose for 15 min, being dipped in 15 ml of a 0.5M MgCl2 for 2 hrs so as to elute alcian blue combined with the mucus. Finally, 10 ml of ethyl ether was added, and the mixture was shaken vigorously. The floating substances were removed, and the aqueous layer was quantified by measuring the absorption at 605 nm.
The above procedures were carried out at room temperature.

[1] = biological target: T1, histamine H2 receptor in atria (Cavia porcellus, UniProt P47747); assay: Histamine H2 receptor inhibition effect by isolated guinea pig right atrium preparation (negative chronotropic effect); assay type: cell-based, Male Hartley Guinea Pig; conditions: 5×10^-6 mol sample 3 minutes prior to histamine, mean of five, read-out: inhibitory effect of histamine H2 receptor in atria (pA2 value) (converted)
T1 construct: right atrium was isolated; from tissue; host or cells: isolated right atrium of male Hartley guinea pig
T1 sequence (P47747 whole entry): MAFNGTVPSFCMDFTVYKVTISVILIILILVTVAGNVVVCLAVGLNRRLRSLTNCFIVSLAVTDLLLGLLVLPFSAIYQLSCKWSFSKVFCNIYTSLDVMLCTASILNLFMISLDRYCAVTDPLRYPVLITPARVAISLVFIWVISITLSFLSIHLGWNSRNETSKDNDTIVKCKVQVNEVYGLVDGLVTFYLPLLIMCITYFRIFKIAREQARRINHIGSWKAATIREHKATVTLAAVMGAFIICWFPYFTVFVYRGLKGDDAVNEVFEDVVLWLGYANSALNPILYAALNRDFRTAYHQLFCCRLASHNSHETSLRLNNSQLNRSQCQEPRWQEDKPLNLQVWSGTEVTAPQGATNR
Experimental: (B) Measurement of Histamine H2 Receptor Inhibition Effect by Isolated Guinea Pig Right Atrium Preparation
Male Hartley Guinea Pig weighing around 400 g was sacrified by decapitation, and right atrium was isolated. The right atrium was suspended in an organ bath (50 ml) containing modified Ringer solution. Under application of a tensile load of 1 g, the heart rate was recorded by means of a polygraph. Histamine was applied cumulatively from 1×10^-7 mol to 3×10^-4 mol and a cumulative dosage response curve was drawn. Then, 5×10^-6 mol of the sample was administered 3 minutes prios to histamine application. The negative logarithmic value (pA2) of the specimen molarity required for shifting the curve to the right to double concentration was calculated.

[2] = system: acid secretion in pylorus-ligated rats; assay: Anti-secretory effect (histamine-stimulated gastric acid secretion) in pylorus-ligated rat; assay type: in vivo, male wistar rats; conditions: Rattus norvegicus, sc, 3 h; 2 mg/kg s.c., 30 min before histamine 3 mg/kg s.c.; n=5; * significant at 5%, ** at 1% vs control; read-out: inhibitory effect of acid secretion (%) at 2 mg/kg s.c.
Experimental: (A) Anti-secretory Effect in Pylorus-ligated Rat
After 24 hr fasting, male wistar rats weighing about 160 g were anesthetized by intraperitoreal injection of urethans 1.2 g/kg. Then, after ligating the pylorus and the esophagus, the proventriculus was incised and a double polyethylene cannula was inserted. The gastric wall was washed out with 5 ml of physiological saline every 30 minutes and the amount of acid contained in the saline after washing was measured by titration. After measuring the basal acid secretion of the pylorus ligated rats three times, the compounds of the invention, 2 mg/kg, were administered subcutaneously and, 30 minutes thereafter, histamine 3 mg/kg, was administered also subcutaneously. Then, the amounts of acid secretion were measured for 3 hours. […] Then, an inhibition rate was calculated in accordance with the following formula, in relation to the increment values measured for the control group. [formula]
One group included five examples.

[3] = Acute oral toxicity test in mice (LD50, Litchfield-Wilcoxon); conditions: mouse, in vivo
Experimental: Male dd-mice were divided into groups of 5 and fasted for 8 hours. The test compounds were administered orally to the mice weighing from 19.7 g. to 22.0 g. The mice were observed survival or death as well as the general symptoms over 7 days after the administration of the compounds. The value of LD50 for each compound was estimated from the mortality observed on the basis of the Litchfield-Wilcoxon method.
In a similar test, the test compound of example 27, 35, 66, 84, 97, 104, 118, 125 or 129 was administered orally to the mice at a dose of 1500 mg/kg.

| Structure (SMILES) | Alcian blue binding (gastric mucus secretion) [OD units/g tissue] | % Change (Alcian blue binding) (gastric mucus secretion) | Kb [1] [nM] | inhibition in vivo at 2 mg/kg [2] [%] | LD50 at 168 h ([3]; similar test, oral dose of 1500 mg/kg) [mg/kg] | LD50 at 168 h ([3]; oral, groups of 5, 7 days observation) [mg/kg] |
| --- | --- | --- | --- | --- | --- | --- |
| CNC(=NC#N)NCCCOc1ccc2[nH]c(NC(=N)N)nc2c1 [Example 8, N-cyano-N'-methyl-N"-[3-<5-(2-guanidinobenzimidazolyl)oxypropyl] guanidine] | 0.55 ± 0.04 | +52.5% | – | – | – | – |
| CN(C)Cc1cccc(Cc2cnc(NCCSCc3ccc4[nH]c(CN(C)C)nc4c3)[nH]c2=O)c1 [Example 78, 2-[2-<5-(2-dimethylaminomethylbenzimidazolyl)methylthio>ethylamino]-5-(3-dimethylaminomethylbenzyl)-4-pyrimidone] | 0.45 ± 0.04 | +24.6% | 1780 | 107 | – | – |
| CN(C)Cc1nc2cc(CSCCNc3nc(N)nn3C)ccc2[nH]1 [Example 97, 1-methyl-5-[2-<5-(2-dimethylaminomethylbenzimidazolyl)-methylthio>ethyl]-1H-1,2,4-triazole-3,5-diamine] | 0.49 ± 0.02 | +37.4% | 891 | 76 | > 1500 | – |
| CN(C)Cc1nc2cc(CSCCNc3n[s+]([O-])nc3N)ccc2[nH]1 (stereo not shown) [Example 103, 3-[2-<5-(2-dimethylaminomethylbenzimidazolyl)methylthio>ethyl]amino-4-amino-1,2,5-thiadiazol-1-oxide] | 0.31 ± 0.02 | +14.8% | 575 | 98 | – | > 4000 |
